We go through 29 molecules from ChEMBL document CHEMBL1134076, “5,5-Diaryl-2-amino-4-pentenoates as novel, potent, and selective glycine transporter type-2 reuptake inhibitors” (Bioorg Med Chem Lett, 2001).

Experiment [1] concerns the target T1, Sodium- and chloride-dependent glycine transporter 1 (Rattus norvegicus, UniProt P28572).
T1 sequence (P28572 whole entry): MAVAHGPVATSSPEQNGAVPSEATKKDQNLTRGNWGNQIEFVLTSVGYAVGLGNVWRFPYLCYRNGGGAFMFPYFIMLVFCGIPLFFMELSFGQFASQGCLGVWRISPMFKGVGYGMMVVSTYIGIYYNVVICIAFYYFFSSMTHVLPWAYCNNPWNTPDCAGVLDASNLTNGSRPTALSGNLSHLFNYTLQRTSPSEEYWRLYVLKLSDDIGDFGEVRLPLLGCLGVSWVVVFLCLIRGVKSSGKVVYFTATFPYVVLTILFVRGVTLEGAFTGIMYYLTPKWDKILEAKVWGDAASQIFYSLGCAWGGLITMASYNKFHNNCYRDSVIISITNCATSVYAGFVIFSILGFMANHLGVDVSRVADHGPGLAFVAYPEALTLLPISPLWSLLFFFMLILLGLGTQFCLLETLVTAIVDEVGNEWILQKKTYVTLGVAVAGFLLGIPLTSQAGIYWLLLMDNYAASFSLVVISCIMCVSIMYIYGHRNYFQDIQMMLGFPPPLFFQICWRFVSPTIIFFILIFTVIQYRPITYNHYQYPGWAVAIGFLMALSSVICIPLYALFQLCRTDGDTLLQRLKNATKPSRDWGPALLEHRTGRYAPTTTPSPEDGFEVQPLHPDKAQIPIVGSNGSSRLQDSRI
Description: In vitro glycine reuptake inhibitory activity against glycine transporter type-1 isoform C (GlyT-1c) transporter cells after incubation at 37 degrees for 30 min in presence of 50 nM [3H]glycine.

Experiment [2] concerns the target T2, Sodium- and chloride-dependent glycine transporter 2 (Rattus norvegicus, UniProt P58295).
T2 sequence (P58295 whole entry): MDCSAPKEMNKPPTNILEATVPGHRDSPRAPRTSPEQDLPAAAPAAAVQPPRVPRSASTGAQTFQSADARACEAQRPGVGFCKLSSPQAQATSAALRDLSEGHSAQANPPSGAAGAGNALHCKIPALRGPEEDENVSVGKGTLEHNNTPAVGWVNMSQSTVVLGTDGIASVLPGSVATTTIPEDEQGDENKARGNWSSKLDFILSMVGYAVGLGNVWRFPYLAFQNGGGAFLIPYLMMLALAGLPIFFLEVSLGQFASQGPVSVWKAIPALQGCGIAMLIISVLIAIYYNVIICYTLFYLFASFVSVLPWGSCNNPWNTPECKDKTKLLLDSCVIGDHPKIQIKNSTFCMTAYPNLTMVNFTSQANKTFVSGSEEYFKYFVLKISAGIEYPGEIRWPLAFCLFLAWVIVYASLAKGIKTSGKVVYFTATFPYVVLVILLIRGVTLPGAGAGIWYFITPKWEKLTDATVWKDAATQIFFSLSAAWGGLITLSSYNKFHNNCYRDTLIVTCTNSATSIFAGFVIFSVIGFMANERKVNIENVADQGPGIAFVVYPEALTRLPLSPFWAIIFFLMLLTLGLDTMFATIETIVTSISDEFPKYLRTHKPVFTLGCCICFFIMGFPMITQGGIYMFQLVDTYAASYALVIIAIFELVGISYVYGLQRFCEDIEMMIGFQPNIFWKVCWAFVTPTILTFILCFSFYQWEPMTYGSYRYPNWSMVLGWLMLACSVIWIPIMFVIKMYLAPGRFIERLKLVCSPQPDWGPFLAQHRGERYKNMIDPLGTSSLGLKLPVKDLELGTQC
Description: In vitro glycine reuptake inhibitory activity against glycine transporter type-2 (GlyT-2) transporter cells after incubation at 37 degrees for 30 min in presence of 50 nM [3H]glycine.

Broadly, the IC50 is the concentration that inhibits the measured activity by half. `NC(C/C=C(\c1cccnc1)c1ccc(F)cc1F)C(=O)O` (stereo not given): the IC50 in experiment [1] and in experiment [2] was greater than 10 µM in each case.

As for `CC(C)(C)c1ccc(/C(=C\CC(N)C(=O)O)c2ccc(F)cc2F)cc1` (stereo not given), the IC50 in experiment [1] is greater than 10 µM; in experiment [2], 1.74 µM.

In the case of `N#Cc1ccc(/C(=C\CC(N)C(=O)O)c2ccc(F)cc2F)cc1` (stereo not given), the IC50 in experiment [1] and in experiment [2] was greater than 10 µM throughout.

As to `NC(C/C=C(/c1ccc(-c2ccccc2)cc1)c1ccc(F)cc1F)C(=O)O` (stereo not given), the IC50 in experiment [1] worked out at 3.4 µM; in experiment [2], 2.4 µM.

For the molecule `CCc1ccc(/C(=C\C[C@H](N)C(=O)O)c2ccc(F)cc2F)cc1CC`, the IC50 in experiment [2] is 0.283 µM.

Regarding `CC(C)c1ccc(/C(=C\C[C@H](N)C(=O)O)c2ccc(F)cc2F)cc1`, the IC50 in experiment [2] worked out at 0.15 µM.

In the case of `Cc1ccc(/C(=C\CC(N)C(=O)O)c2ccc(F)cc2F)cc1` (stereo not given), the IC50 in experiment [1] is 9.56 µM; in experiment [2] it was 1.17 µM.

As to `CC(C)c1ccc(/C(=C\CC(N)C(=O)O)c2ccc(-c3ccccc3)cc2)cc1` (stereo not given), the IC50 in experiment [1] is greater than 10 µM; in experiment [2], 2.06 µM.

Regarding `CC(C)c1ccc(/C(=C\CC(N)C(=O)O)c2ccc(C(C)(C)C)cc2)cc1` (stereo not given), the IC50 is greater than 10 µM in experiment [1] and 5.47 µM in experiment [2].

With `NC(C/C=C(\c1cccc(-c2ccccc2)c1)c1ccc(F)cc1F)C(=O)O` (stereo not given), the IC50 was greater than 10 µM in experiment [1] and 1.34 µM in experiment [2].

In the case of `COc1ccc(/C(=C\CC(N)C(=O)O)c2ccc(F)cc2F)cc1` (stereo not given), the IC50 is greater than 10 µM in experiment [1] and 2.03 µM in experiment [2].

On to `CCc1ccc(/C(=C\CC(N)C(=O)O)c2ccc(F)cc2F)cc1CC` (stereo not given), for which the IC50 in experiment [1] was greater than 10 µM; in experiment [2], 0.66 µM.

Take `NC(C/C=C(\c1ccccc1)c1ccc(F)cc1F)C(=O)O` (stereo not given): the IC50 in experiment [1] was 9.5 µM; in experiment [2], 6.44 µM.

Turning to `CC(C)c1ccc(/C(=C\CC(N)C(=O)O)c2ccccc2F)cc1` (stereo not given), the IC50 in experiment [1] stood at 8.02 µM; in experiment [2] it was 0.29 µM.

Turning to `CC(C)c1cccc(/C(=C\CC(N)C(=O)O)c2ccc(F)cc2F)c1` (stereo not given), the IC50 in experiment [1] was greater than 10 µM; in experiment [2], 1.59 µM.

For the molecule `CC(C)c1ccc(/C(=C\CC(N)C(=O)O)c2ccc(C#N)cc2)cc1` (stereo not given), the IC50 was greater than 10 µM in experiment [1] and 2.64 µM in experiment [2].

Turning to `CCc1ccc(/C(=C\CC(N)C(=O)O)c2ccc(F)cc2F)cc1` (stereo not given), the IC50 was greater than 10 µM in experiment [1] and 0.46 µM in experiment [2].

`CC(C)c1ccc(/C(=C\CC(N)C(=O)O)c2ccccc2)cc1` (stereo not given): the IC50 was 8.34 µM in experiment [1] and 0.4 µM in experiment [2].

In the case of `CC(C)c1ccc(/C(=C/CC(N)C(=O)O)c2ccc(F)cc2F)cc1` (stereo not given), the IC50 in experiment [1] and in experiment [2] was greater than 10 µM throughout.

Regarding `NC(C/C=C(\c1ccc(-c2ccccc2)cc1)c1ccc(F)cc1F)C(=O)O` (stereo not given), the IC50 in experiment [1] was greater than 10 µM; in experiment [2], 3.66 µM.

For the molecule `CC(C)c1ccc(C(=CCC(N)C(=O)O)c2ccc(C(C)C)cc2)cc1` (stereo not given), the IC50 in experiment [1] was greater than 10 µM; in experiment [2], 2.03 µM.

`NC(C/C=C(/c1ccc(F)cc1F)c1ccccc1-c1ccccc1)C(=O)O` (stereo not given): the IC50 is 8.92 µM in experiment [1] and 2.75 µM in experiment [2].

`CC(C)c1ccc(/C(=C\CC(N)C(=O)O)c2ccc(F)cc2F)cc1` (stereo not given): the figures for the IC50 in experiment [1] and in experiment [2] were greater than 10 µM and 0.33 µM, respectively.

As to `N[C@@H](C/C=C(\c1ccc2ccccc2c1)c1ccc(F)cc1F)C(=O)O`, the IC50 in experiment [2] came out at 0.365 µM.

Take `CC(C)c1ccc(/C(=C\CC(N)C(=O)O)c2cccnc2)cc1` (stereo not given): the IC50 in experiment [1] was determined as 6.48 µM; in experiment [2], 5.93 µM.

As to `COc1ccc(/C(=C/CC(N)C(=O)O)c2ccc(C(C)C)cc2)cc1` (stereo not given), the figures for the IC50 in experiment [1] and in experiment [2] were greater than 10 µM and 1.16 µM, respectively.

In the case of `NC(C/C=C(\c1ccc2ccccc2c1)c1ccc(F)cc1F)C(=O)O` (stereo not given), the IC50 in experiment [1] is greater than 10 µM; in experiment [2], 0.77 µM.

Regarding `CC(C)c1ccc(/C(=C\CC(N)C(=O)O)c2ccsc2)cc1` (stereo not given), the IC50 is 5.77 µM in experiment [1] and 1.03 µM in experiment [2].

As for `NC(C/C=C(\c1ccsc1)c1ccc(F)cc1F)C(=O)O` (stereo not given), the IC50 in experiment [1] was greater than 10 µM; in experiment [2], 5.88 µM.
